# Columns and labels:
# HL60 = assay: CellTiter-Blue cell-based survival/proliferation assay, HL60; conditions: Homo sapiens, HL-60, Leukemia cell line HL60, 48 h, read-out: Anti-tumoral activity (measured IC50) HL60
# In short: (§1)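 Compounds, diluted tenfold serially over 0–10 μM, are applied to 1·10^4 seeded cells per well for 48 h at 37 °C. Resorufin formed during a further 4 h with CellTiter-Blue is detected by fluorescence emission at 590 nm.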
# HUT78 = assay: CellTiter-Blue cell-based survival/proliferation assay, HUT78; conditions: Homo sapiens, Lymphoma cell line HUT78, 48 h, read-out: Anti-tumoral activity (measured IC50) HUT78
# In short: as §1
# KARPAS299 = assay: CellTiter-Blue cell-based survival/proliferation assay, KARPAS299; conditions: Homo sapiens, KARPAS-299, Lymphoma cell line KARPAS299, 48 h, read-out: Anti-tumoral activity (measured IC50) KARPAS299
# In short: as §1
# REC1 = assay: CellTiter-Blue cell-based survival/proliferation assay, REC1; conditions: Homo sapiens, Lymphoma cell line REC1, 48 h, read-out: Anti-tumoral activity (measured IC50) REC1
# In short: as §1
# OPM2 = assay: CellTiter-Blue cell-based survival/proliferation assay, OPM2; conditions: Homo sapiens, OPM-2, Myeloma cell line OPM2, 48 h, read-out: Anti-tumoral activity (measured IC50) OPM2
# In short: as §1
# A375 = assay: CellTiter-Blue cell-based survival/proliferation assay, A375; conditions: Homo sapiens, A-375; A375 melanoma cell line, 48 h
# Method: (§2) Cell-Based Proliferation Screening of Compounds
# (§3) CellTiter-Blue cell-based survival/proliferation assay (Promega G8080) was performed on tumor cell lines. A total of 1·10^4 cells/well/50 μl were seeded in a 96-wells plate. Treatment was initiated by addition of a 2× drug solution of 1/10 serial dilutions ranging from 0 to 10 μM. Cells were grown for 48 h at 37° C. and then incubated with 10 μl/well of Promega CellTiter-Bleue reagent for 4 h at 37° C. The amount of resorufin dye formed was quantified by its fluorescence emission at 590 nm using a scanning multiwell spectrophotometer (OPTIMA, BMG labtech, France). A blank well without cells was used as a background control for the spectrophotometer.
# A4513 = assay: CellTiter-Blue cell-based survival/proliferation assay, A4513; conditions: Homo sapiens; A4513 Ewing cell line, 48 h
# Method: as §2, §3
# A498 = assay: CellTiter-Blue cell-based survival/proliferation assay, A498; conditions: Homo sapiens; A498 kidney tumor cell line, 48 h
# In short: as §1
# A549 = assay: CellTiter-Blue cell-based survival/proliferation assay, A549; conditions: Homo sapiens; A549 lung tumor cell line, 48 h
# In short: as §1
# ACHN = assay: CellTiter-Blue cell-based survival/proliferation assay, ACHN; conditions: Homo sapiens; ACHN kidney tumor cell line, 48 h
# In short: as §1
# AGS = assay: CellTiter-Blue cell-based survival/proliferation assay, AGS; conditions: Homo sapiens; AGS stomach tumor cell line, 48 h
# In short: as §1
# BT20 = assay: CellTiter-Blue cell-based survival/proliferation assay, BT20; conditions: Homo sapiens, BT-20; BT20 breast tumor cell line, 48 h
# In short: as §1
# BXPC3 = assay: CellTiter-Blue cell-based survival/proliferation assay, BXPC3; conditions: Homo sapiens, BXPC-3; BXPC3 pancreas tumor cell line, 48 h
# In short: as §1
# CALU6 = assay: CellTiter-Blue cell-based survival/proliferation assay, CALU6; conditions: Homo sapiens, Calu-6; CALU6 lung tumor cell line, 48 h
# In short: as §1
# CLS354 = assay: CellTiter-Blue cell-based survival/proliferation assay, CLS354; conditions: Homo sapiens, CLS-354; CLS354_4 head & neck tumor cell line, 48 h
# In short: as §1
# DLD1 = assay: CellTiter-Blue cell-based survival/proliferation assay, DLD1; conditions: Homo sapiens, DLD-1; DLD_1 colorectal tumor cell line, 48 h
# In short: as §1
# DU145 = assay: CellTiter-Blue cell-based survival/proliferation assay, DU145; conditions: Homo sapiens, DU-145; DU145 prostate tumor cell line, 48 h
# In short: as §1
# H1299 = assay: CellTiter-Blue cell-based survival/proliferation assay, H1299; conditions: Homo sapiens, NCI-H1299; H1299 lung tumor cell line, 48 h
# In short: as §1
# HCT116 = assay: CellTiter-Blue cell-based survival/proliferation assay, HCT116; conditions: Homo sapiens, HCT-116; HCT116 colorectal tumor cell line, 48 h
# In short: as §1
# HEP2 = assay: CellTiter-Blue cell-based survival/proliferation assay, HEP2; conditions: Homo sapiens, HEp-2; HEP2 head & neck tumor cell line, 48 h
# In short: as §1
# HEPG2 = assay: CellTiter-Blue cell-based survival/proliferation assay, HEPG2; conditions: Homo sapiens; HEPG2 liver tumor cell line, 48 h
# In short: as §1
# HGC27 = assay: CellTiter-Blue cell-based survival/proliferation assay, HGC27; conditions: Homo sapiens, HGC-27; HGC27 stomach tumor cell line, 48 h
# In short: as §1
# MDAMB231 = assay: CellTiter-Blue cell-based survival/proliferation assay, MDAMB231; conditions: Homo sapiens, MDA-MB-231; MDAMB231 breast tumor cell line, 48 h
# In short: as §1
# MELWO = assay: CellTiter-Blue cell-based survival/proliferation assay, MELWO; conditions: Homo sapiens; MEL_WO melanoma cell line, 48 h
# Method: as §2, §3
# MESSA = assay: CellTiter-Blue cell-based survival/proliferation assay, MESSA; conditions: Homo sapiens, MES-SA; MESSA ovary tumor cell line, 48 h
# In short: as §1
# PANC1 = assay: CellTiter-Blue cell-based survival/proliferation assay, PANC1; conditions: Homo sapiens, PANC-1; PANC_1 pancreas tumor cell line, 48 h
# In short: as §1
# PC3 = assay: CellTiter-Blue cell-based survival/proliferation assay, PC3; conditions: Homo sapiens, PC-3; PC3 prostate tumor cell line, 48 h
# In short: as §1
# PLCPRF5 = assay: CellTiter-Blue cell-based survival/proliferation assay, PLCPRF5; conditions: Homo sapiens, PLC-PRF-5; PLC_PRF5 liver tumor cell line, 48 h
# In short: as §1
# SW579 = assay: CellTiter-Blue cell-based survival/proliferation assay, SW579; conditions: Homo sapiens; SW579 head & neck tumor cell line, 48 h
# In short: as §1
# TOV112D = assay: CellTiter-Blue cell-based survival/proliferation assay, TOV112D; conditions: Homo sapiens; TOV112D ovary tumor cell line, 48 h
# In short: as §1
# U118 = assay: CellTiter-Blue cell-based survival/proliferation assay, U118; conditions: Homo sapiens; U118 glioblastoma cell line, 48 h
# Method: as §2, §3
# U2OS = assay: CellTiter-Blue cell-based survival/proliferation assay, U2OS; conditions: Homo sapiens; U2OS osteosarcoma cell line, 48 h
# Method: as §2, §3
# U87MG = assay: CellTiter-Blue cell-based survival/proliferation assay, U87MG; conditions: Homo sapiens, U-87 MG; U87_MG glioblastoma cell line, 48 h
# Method: as §2, §3
SMILES,IC50 (HL60) [nM],IC50 (HUT78) [nM],IC50 (KARPAS299) [nM],IC50 (REC1) [nM],IC50 (OPM2) [nM],IC50 (A375) [nM],IC50 (A4513) [nM],IC50 (A498) [nM],IC50 (A549) [nM],IC50 (ACHN) [nM],IC50 (AGS) [nM],IC50 (BT20) [nM],IC50 (BXPC3) [nM],IC50 (CALU6) [nM],IC50 (CLS354) [nM],IC50 (DLD1) [nM],IC50 (DU145) [nM],IC50 (H1299) [nM],IC50 (HCT116) [nM],IC50 (HEP2) [nM],also measured
"CCOCc1ccc(C)c(Nc2ncc(-c3ccc(-n4cccn4)cc3)s2)c1 [Example 004, (5-Ethoxymethyl-2-methyl-phenyl)-[5-(4-pyrazol-1-yl-phenyl)-thiazol-2-yl]-amine]",> 1000,> 1000,> 1000,> 1000,> 1000,> 1000,> 1000,> 1000,> 1000,> 1000,> 1000,> 1000,> 1000,> 1000,> 1000,> 1000,> 1000,> 1000,> 1000,> 1000,IC50 (HEPG2): > 1000 nM; IC50 (HGC27): > 1000 nM; IC50 (MDAMB231): > 1000 nM; IC50 (MELWO): > 1000 nM; IC50 (MESSA): > 1000 nM; IC50 (PANC1): > 1000 nM; IC50 (PC3): > 1000 nM; IC50 (PLCPRF5): > 1000 nM; IC50 (SW579): > 1000 nM; IC50 (TOV112D): > 1000 nM; IC50 (U118): > 1000 nM; IC50 (U2OS): > 1000 nM; IC50 (U87MG): > 1000 nM
"Cc1ccc(C(=O)NCCN2CCOCC2)cc1Nc1ncc(-c2ccc(-n3cccn3)cc2)o1 [Example 005, 4-Methyl-N-(2-morpholin-4-yl-ethyl)-3-[5-(4-pyrazol-1-yl-phenyl)-oxazol-2-ylamino]-benzamide]",> 1000,> 1000,> 1000,> 1000,> 1000,> 1000,> 1000,> 1000,> 1000,> 1000,> 1000,> 1000,> 1000,> 1000,> 1000,> 1000,> 1000,> 1000,> 1000,> 1000,IC50 (HEPG2): > 1000 nM; IC50 (HGC27): > 1000 nM; IC50 (MDAMB231): > 1000 nM; IC50 (MELWO): > 1000 nM; IC50 (MESSA): > 1000 nM; IC50 (PANC1): > 1000 nM; IC50 (PC3): > 1000 nM; IC50 (PLCPRF5): > 1000 nM; IC50 (SW579): > 1000 nM; IC50 (TOV112D): > 1000 nM; IC50 (U118): > 1000 nM; IC50 (U2OS): > 1000 nM; IC50 (U87MG): > 1000 nM
"CCOCc1ccc(C)c(Nc2ncc(-c3ccc(-n4cccn4)nc3)o2)c1 [Example 007, (5-Ethoxymethyl-2-methyl-phenyl)-[5-(6-pyrazol-1-yl-pyridin-3-yl)-oxazol-2-yl]-amine]",100 to 500,≤ 100,≤ 100,≤ 100,100 to 500,≤ 100,100 to 500,> 1000,> 1000,100 to 500,≤ 100,> 1000,> 1000,> 1000,≤ 100,500 to 1000,> 1000,> 1000,> 1000,100 to 500,IC50 (HEPG2): > 1000 nM; IC50 (HGC27): 100 to 500 nM; IC50 (MDAMB231): > 1000 nM; IC50 (MELWO): > 1000 nM; IC50 (MESSA): > 1000 nM; IC50 (PANC1): > 1000 nM; IC50 (PC3): 100 to 500 nM; IC50 (PLCPRF5): > 1000 nM; IC50 (SW579): > 1000 nM; IC50 (TOV112D): ≤ 100 nM; IC50 (U118): > 1000 nM; IC50 (U2OS): > 1000 nM; IC50 (U87MG): > 1000 nM
"CCOCc1ccc(C)c(Nc2nc(-c3ccc(N4CCNC4=O)cc3)ns2)c1 [Example 010, 1-{4-[5-(5-Ethoxymethyl-(2-methyl-phenylamino))-[1,2,4]thiadiazol-3-yl]-phenyl}-imidazolidin-2-one]",≤ 100,≤ 100,≤ 100,≤ 100,≤ 100,≤ 100,> 1000,> 1000,> 1000,≤ 100,> 1000,> 1000,> 1000,500 to 1000,≤ 100,> 1000,> 1000,100 to 500,≤ 100,≤ 100,IC50 (HEPG2): > 1000 nM; IC50 (HGC27): ≤ 100 nM; IC50 (MDAMB231): > 1000 nM; IC50 (MELWO): ≤ 100 nM; IC50 (MESSA): > 1000 nM; IC50 (PANC1): > 1000 nM; IC50 (PC3): ≤ 100 nM; IC50 (PLCPRF5): > 1000 nM; IC50 (SW579): ≤ 100 nM; IC50 (TOV112D): ≤ 100 nM; IC50 (U118): > 1000 nM; IC50 (U2OS): > 1000 nM; IC50 (U87MG): > 1000 nM
"COc1ccc(C)c(Nc2ncc(-c3ccc(-n4cccn4)cc3)s2)c1 [Example 011, (5-Methoxy-2-methyl-phenyl)-[5-(4-pyrazol-1-yl-phenyl)-thiazol-2-yl]-amine]",> 1000,> 1000,> 1000,> 1000,> 1000,> 1000,> 1000,> 1000,> 1000,> 1000,> 1000,> 1000,> 1000,> 1000,> 1000,> 1000,> 1000,> 1000,> 1000,> 1000,IC50 (HEPG2): > 1000 nM; IC50 (HGC27): > 1000 nM; IC50 (MDAMB231): > 1000 nM; IC50 (MELWO): > 1000 nM; IC50 (MESSA): > 1000 nM; IC50 (PANC1): > 1000 nM; IC50 (PC3): > 1000 nM; IC50 (PLCPRF5): > 1000 nM; IC50 (SW579): > 1000 nM; IC50 (TOV112D): > 1000 nM; IC50 (U118): > 1000 nM; IC50 (U2OS): > 1000 nM; IC50 (U87MG): > 1000 nM
"COc1ccc(C)c(Nc2ncc(-c3ccc(N4CCNC4=O)cc3)s2)c1 [Example 013, 1-{4-[2-(5-Methoxy-2-methyl-phenylamino)-thiazol-5-yl]-phenyl}-imidazolidin-2-one]",100 to 500,500 to 1000,500 to 1000,500 to 1000,100 to 500,> 1000,100 to 500,> 1000,> 1000,> 1000,> 1000,> 1000,> 1000,> 1000,> 1000,> 1000,> 1000,> 1000,> 1000,> 1000,IC50 (HEPG2): > 1000 nM; IC50 (HGC27): > 1000 nM; IC50 (MDAMB231): > 1000 nM; IC50 (MELWO): > 1000 nM; IC50 (MESSA): > 1000 nM; IC50 (PANC1): > 1000 nM; IC50 (PC3): 500 to 1000 nM; IC50 (PLCPRF5): > 1000 nM; IC50 (SW579): > 1000 nM; IC50 (TOV112D): > 1000 nM; IC50 (U118): > 1000 nM; IC50 (U2OS): > 1000 nM; IC50 (U87MG): > 1000 nM
